The data set deals with CCRIS mutagenicity, Ames/micronucleus/aberration tests. In words: CCRIS mutagenicity studies.
Setting [1] is: Test System: AMES SALMONELLA TYPHIMURIUM, Strain/Indicator: TA98, Metabolic Activation: NONE, Method: PREINCUBATION
[2] abbreviates: Test System: AMES SALMONELLA TYPHIMURIUM, Strain/Indicator: TA100, Metabolic Activation: NONE, Method: PREINCUBATION
Setting [3] is: Test System: AMES SALMONELLA TYPHIMURIUM, Strain/Indicator: TA1535, Metabolic Activation: NONE, Method: PREINCUBATION
Setting [4] is: Test System: AMES SALMONELLA TYPHIMURIUM, Strain/Indicator: TA1537, Metabolic Activation: NONE, Method: PREINCUBATION

The source made the active and inactive calls. No rule for the calls is given here.

On to `CC(=O)ON(C(C)=O)c1ccc(-c2ccccc2)cc1`, for which the mutagenic call was “active; positive” (Test System: AMES SALMONELLA TYPHIMURIUM, Strain/Indicator: TA98(1,8-DNP6), Metabolic Activation: HUMAN, UROEPITHELIAL CELL, MICROSOMES, Method: PREINCUBATION); “active; positive” (Test System: AMES SALMONELLA TYPHIMURIUM, Strain/Indicator: TA98(1,8-DNP6), Metabolic Activation: NONE, Method: PREINCUBATION); “active; positive” (Test System: AMES SALMONELLA TYPHIMURIUM, Strain/Indicator: TA98, Metabolic Activation: DOG, BLADDER, MICROSOMES, Method: PREINCUBATION); “active; positive” (Test System: AMES SALMONELLA TYPHIMURIUM, Strain/Indicator: TA98, Metabolic Activation: DOG, LIVER, MICROSOMES, Method: PREINCUBATION); “inactive; negative” (Test System: AMES SALMONELLA TYPHIMURIUM, Strain/Indicator: TA98, Metabolic Activation: HUMAN, UROEPITHELIAL CELL, CYTOSOL, Method: PREINCUBATION); “active; positive” (Test System: AMES SALMONELLA TYPHIMURIUM, Strain/Indicator: TA98, Metabolic Activation: HUMAN, UROEPITHELIAL CELL, MICROSOMES, Method: PREINCUBATION). Moreover, the mutagenic call reads like this: (Test System: AMES SALMONELLA TYPHIMURIUM, Strain/Indicator: TA98, Metabolic Activation: HUMAN, UROEPITHELIAL CELL, S-9, Method: PREINCUBATION) “active; positive”; under setting [1], “active; positive”; (Test System: AMES SALMONELLA TYPHIMURIUM, Strain/Indicator: TA98, Metabolic Activation: RAT, BLADDER, MICROSOMES, Method: PREINCUBATION) “active; positive”; (Test System: AMES SALMONELLA TYPHIMURIUM, Strain/Indicator: TA98, Metabolic Activation: RAT, LIVER, MICROSOMES, Method: PREINCUBATION) “active; positive”; (Test System: AMES SALMONELLA TYPHIMURIUM, Strain/Indicator: YG1024, Metabolic Activation: HUMAN, UROEPITHELIAL CELL, MICROSOMES, Method: PREINCUBATION) “active; positive”; (Test System: UDS HUMAN FIBROBLASTS, Strain/Indicator: THY INCORP (NON-S-PHASE), Metabolic Activation: NONE, Method: AUTORADIOGRAPHY) “active; positive”.
In the case of `Nc1ccc(O)c2c1C(=O)C=CC2=O`, the mutagenic call was “inactive; negative” (Test System: Ames Salmonella typhimurium, Strain/Indicator: TA97, Metabolic Activation: None, Method: Preincubation); “inactive; negative” (Test System: Ames Salmonella typhimurium, Strain/Indicator: TA97, Metabolic Activation: Rat, Liver, S9, Aroclor 1254, Method: Preincubation); “active; positive” (Test System: Ames Salmonella typhimurium, Strain/Indicator: TA98, Metabolic Activation: None, Method: Preincubation); “active; positive” (Test System: Ames Salmonella typhimurium, Strain/Indicator: TA98, Metabolic Activation: Rat, Liver, S9, Aroclor 1254, Method: Preincubation); “inactive; negative” (Test System: Ames Salmonella typhimurium, Strain/Indicator: TA100, Metabolic Activation: None, Method: Preincubation); “inactive; negative” (Test System: Ames Salmonella typhimurium, Strain/Indicator: TA100, Metabolic Activation: Rat, Liver, S9, Aroclor 1254, Method: Preincubation). For the same compound, the mutagenic call is “inactive; negative” (Test System: Ames Salmonella typhimurium, Strain/Indicator: TA102, Metabolic Activation: None, Method: Preincubation) and “active; positive” (Test System: Ames Salmonella typhimurium, Strain/Indicator: TA102, Metabolic Activation: Rat, Liver, S9, Aroclor 1254, Method: Preincubation).
With `CC(=O)NNC(=O)c1ccccn1`, the mutagenic call runs as follows: (Test System: AMES SALMONELLA TYPHIMURIUM, Strain/Indicator: TA98, Metabolic Activation: HAMSTER, LIVER, S-9, AROCLOR 1254, Method: PREINCUBATION) “inactive; negative”; under setting [1], “inactive; negative”; (Test System: AMES SALMONELLA TYPHIMURIUM, Strain/Indicator: TA98, Metabolic Activation: RAT, LIVER, S-9, AROCLOR 1254, Method: PREINCUBATION) “inactive; negative”; (Test System: AMES SALMONELLA TYPHIMURIUM, Strain/Indicator: TA100, Metabolic Activation: HAMSTER, LIVER, S-9, AROCLOR 1254, Method: PREINCUBATION) “inactive; negative”; under setting [2], “inactive; negative”; (Test System: AMES SALMONELLA TYPHIMURIUM, Strain/Indicator: TA100, Metabolic Activation: RAT, LIVER, S-9, AROCLOR 1254, Method: PREINCUBATION) “inactive; negative”. Further, the mutagenic call (Test System: AMES SALMONELLA TYPHIMURIUM, Strain/Indicator: TA1535, Metabolic Activation: HAMSTER, LIVER, S-9, AROCLOR 1254, Method: PREINCUBATION) is “inactive; negative”; the mutagenic call under setting [3] was “inactive; negative”; the mutagenic call (Test System: AMES SALMONELLA TYPHIMURIUM, Strain/Indicator: TA1535, Metabolic Activation: RAT, LIVER, S-9, AROCLOR 1254, Method: PREINCUBATION) was “inactive; negative”; the mutagenic call (Test System: AMES SALMONELLA TYPHIMURIUM, Strain/Indicator: TA1537, Metabolic Activation: HAMSTER, LIVER, S-9, AROCLOR 1254, Method: PREINCUBATION) was “inactive; negative”; the mutagenic call under setting [4] is “inactive; negative”; the mutagenic call (Test System: AMES SALMONELLA TYPHIMURIUM, Strain/Indicator: TA1537, Metabolic Activation: RAT, LIVER, S-9, AROCLOR 1254, Method: PREINCUBATION) is “inactive; negative”.
As for `CN(C(=O)CN(CCO)CC(=O)N(C)C(C)(C)Cc1ccccc1)C(C)(C)Cc1ccccc1`, the mutagenic call runs as follows: (Test System: AMES SALMONELLA TYPHIMURIUM, Strain/Indicator: TA97, Metabolic Activation: HAMSTER, LIVER, S-9, AROCLOR 1254 (10 OR 30%), Method: PREINCUBATION) “inactive; negative”; (Test System: AMES SALMONELLA TYPHIMURIUM, Strain/Indicator: TA97, Metabolic Activation: NONE, Method: PREINCUBATION) “inactive; negative”; (Test System: AMES SALMONELLA TYPHIMURIUM, Strain/Indicator: TA97, Metabolic Activation: RAT, LIVER, S-9, AROCLOR 1254 (10 OR 30%), Method: PREINCUBATION) “inactive; negative”; (Test System: AMES SALMONELLA TYPHIMURIUM, Strain/Indicator: TA98, Metabolic Activation: HAMSTER, LIVER, S-9, AROCLOR 1254 (10 OR 30%), Method: PREINCUBATION) “inactive; negative”; under setting [1], “inactive; negative”; (Test System: AMES SALMONELLA TYPHIMURIUM, Strain/Indicator: TA98, Metabolic Activation: RAT, LIVER, S-9, AROCLOR 1254 (10 OR 30%), Method: PREINCUBATION) “inactive; negative”. In addition, the mutagenic call by setting is: (Test System: AMES SALMONELLA TYPHIMURIUM, Strain/Indicator: TA100, Metabolic Activation: HAMSTER, LIVER, S-9, AROCLOR 1254 (10 OR 30%), Method: PREINCUBATION) “inactive; negative”; under setting [2], “inactive; negative”; (Test System: AMES SALMONELLA TYPHIMURIUM, Strain/Indicator: TA100, Metabolic Activation: RAT, LIVER, S-9, AROCLOR 1254 (10 OR 30%), Method: PREINCUBATION) “inactive; negative”; (Test System: AMES SALMONELLA TYPHIMURIUM, Strain/Indicator: TA1535, Metabolic Activation: HAMSTER, LIVER, S-9, AROCLOR 1254 (10 OR 30%), Method: PREINCUBATION) “inactive; negative”; under setting [3], “inactive; negative”; (Test System: AMES SALMONELLA TYPHIMURIUM, Strain/Indicator: TA1535, Metabolic Activation: RAT, LIVER, S-9, AROCLOR 1254 (10 OR 30%), Method: PREINCUBATION) “inactive; negative”.
Regarding `CCOCn1cc(F)c(=O)n(C(=O)c2cccc(C(=O)Oc3nc(OC(=O)c4ccccc4)ccc3C#N)c2)c1=O`, the mutagenic call was “inactive; negative” under setting [1]; “inactive; negative” (Test System: AMES SALMONELLA TYPHIMURIUM, Strain/Indicator: TA98, Metabolic Activation: S-9, Method: PREINCUBATION); “inactive; negative” under setting [2]; “inactive; negative” (Test System: AMES SALMONELLA TYPHIMURIUM, Strain/Indicator: TA100, Metabolic Activation: S-9, Method: PREINCUBATION); “inactive; negative” under setting [3]; “inactive; negative” (Test System: AMES SALMONELLA TYPHIMURIUM, Strain/Indicator: TA1535, Metabolic Activation: S-9, Method: PREINCUBATION). Further, the mutagenic call is “inactive; negative” under setting [4]; “inactive; negative” (Test System: AMES SALMONELLA TYPHIMURIUM, Strain/Indicator: TA1537, Metabolic Activation: S-9, Method: PREINCUBATION); “inactive; negative” (Test System: E. COLI, Strain/Indicator: WP2 UVRA, Metabolic Activation: NONE, Method: PREINCUBATION); “inactive; negative” (Test System: E. COLI, Strain/Indicator: WP2 UVRA, Metabolic Activation: S-9, Method: PREINCUBATION).

Values taken from PubChem BioAssay AID1259407 (Chemical Carcinogenesis Research Information System (CCRIS), 2018).
